Source: patent publication US9486435B2, “(Het)aryl-p-quinone derivatives for treatment of mitochondrial diseases” (Edison Pharmaceuticals, Inc., priority 2008, dated 2016)

How the values were obtained:
Assay type in all cases: cell-based
[1] = system: Human dermal fibroblasts from Friedreich's Ataxia patients; experiment: Rescue of BSO-stressed FRDA fibroblasts (Calcein AM viability); conditions: FRDA fibroblasts GM04078, BSO stress, read-out: protection against FRDA, EC50
Experimental: (§1) An initial screen was performed to identify compounds effective for the amelioration of redox disorders. Test samples, 4 reference compounds (Idebenone, decylubiquinone, Trolox and α-tocopherol acetate), and solvent controls were tested for their ability to rescue FRDA fibroblasts stressed by addition of L-buthionine-(S,R)-sulfoximine (BSO), as described in Jauslin et al., Hum. Mol. Genet. 11(24):3055 (2002), Jauslin et al., FASEB J. 17:1972-4 (2003), and International Patent Application WO 2004/003565. […] This specific BSO-mediated cell death can be prevented by administration of antioxidants or molecules involved in the antioxidant pathway, such as α-tocopherol, selenium, or small molecule glutathione peroxidase mimetics. However, antioxidants differ in their potency, i.e. the concentration at which they are able to rescue BSO-stressed FRDA fibroblasts.
MEM (a medium enriched in amino acids and vitamins, catalog no. 1-31F24-I) and Medium 199 (M199, catalog no. 1-21F22-I) with Earle's Balanced Salts, without phenol red, were purchased from Bioconcept. Fetal Calf Serum was obtained from PAA Laboratories. Basic fibroblast growth factor and epidermal growth factor were purchased from PeproTech. Penicillin-streptomycin-glutamine mix, L-buthionine (S,R)-sulfoximine, (+)-α-tocopherol acetate, decylubiquinone, and insulin from bovine pancreas were purchased from Sigma. Trolox (6-hydroxy-2,5,7,8-tetramethylchromane-2-carboxylic acid) was obtained from Fluka. Idebenone was obtained from Chemo Iberica. Calcein AM was purchased from Molecular Probes. Cell culture medium was made by combining 125 ml M 199 EBS, 50 ml Fetal Calf Serum, 100 U/ml penicillin, 100 μg/ml streptomycin, 2 mM glutamine, 10 μg/ml insulin, 10 ng/ml EGF, and 10 ng/ml bFGF; MEM EBS was added to make the volume up to 500 ml. A 10 mM BSO solution was prepared by dissolving 444 mg BSO in 200 ml of medium with subsequent filter-sterilization. During the course of the experiments, this solution was stored at +4° C. The cells were obtained from the Coriell Cell Repositories (Camden, N.J.; repository number GM04078) and grown in 10 cm tissue culture plates. Every third day, they were split at a 1:3 ratio.
The test samples were supplied in 1.5 ml glass vials. The compounds were diluted with DMSO, ethanol or PBS to result in a 5 mM stock solution. Once dissolved, they were stored at −20° C. Reference antioxidants (Idebenone, decylubiquinone, α-tocopherol acetate and trolox) were dissolved in DMSO.
(§2) Test samples were screened according to the following protocol: A culture with FRDA fibroblasts was started from a 1 ml vial with approximately 500,000 cells stored in liquid nitrogen. Cells were propagated in 10 cm cell culture dishes by splitting every third day in a ratio of 1:3 until nine plates were available. Once confluent, fibroblasts were harvested. For 54 micro titer plates (96 well-MTP) a total of 14.3 million cells (passage eight) were re-suspended in 480 ml medium, corresponding to 100 μl medium with 3,000 cells/well. The remaining cells were distributed in 10 cm cell culture plates (500,000 cells/plate) for propagation. The plates were incubated overnight at 37° C. in a atmosphere with 95% humidity and 5% CO2 to allow attachment of the cells to the culture plate.
(§3) MTP medium (243 μl) was added to a well of the microtiter plate. The test compounds were unfrozen, and 7.5 μl of a 5 mM stock solution was dissolved in the well containing 243 μl medium, resulting in a 150 μM master solution. Serial dilutions from the master solution were made. The period between the single dilution steps was kept as short as possible (generally less than 1 second).
Plates were kept overnight in the cell culture incubator. The next day, 10 μl of a 10 mM BSO solution were added to the wells, resulting in a 1 mM final BSO concentration. Forty-eight hours later, three plates were examined under a phase-contrast microscope to verify that the cells in the 0% control (wells E1-H1) were clearly dead. […]

[2] = system: human dermal fibroblasts from Huntington's patients; experiment: Rescue of BSO-stressed fibroblasts from Huntington's patients; conditions: Fibroblast, Huntington's fibroblasts GM 04281, BSO stress, read-out: protection against Huntington's, EC50
Experimental: as §1, §2, §3
(§4) Plates were kept overnight in the cell culture incubator. The next day, 10 μl of a 10 mM BSO solution were added to the wells, resulting in a 1 mM final BSO concentration. Forty-eight hours later, three plates were examined under a phase-contrast microscope to verify that the cells in the 0% control (wells E1-H1) were clearly dead. The medium from all plates was discarded, and the remaining liquid was removed by gently tapping the plate inversed onto a paper towel.
(§5) 100 μl of PBS containing 1.2 μM Calcein AM were then added to each well. The plates were incubated for 50-70 minutes at room temperature. After that time the PBS was discarded, the plate gently tapped on a paper towel and fluorescence (excitation/emission wavelengths of 485 nm and 525 nm, respectively) was read on a Gemini fluorescence reader. Data was imported into Microsoft Excel (EXCEL is a registered trademark of Microsoft Corporation for a spreadsheet program) and used to calculate the EC50 concentration for each compound.
Compounds of the invention were tested using the screen as described in Example A, but substituting FRDA cells with Huntington's cells obtained from the Coriell Cell Repositories (Camden, N.J.; repository number GM 04281). The compounds were tested for their ability to rescue human dermal fibroblasts from Huntington's patients from oxidative stress.

[3] = system: human dermal fibroblasts from LHON patients; experiment: Rescue of BSO-stressed fibroblasts from LHON patients; conditions: Fibroblast, LHON fibroblasts GM03858, BSO stress, read-out: protection against LHON, EC50
Experimental: as §1, §2, §3, §4, §5
Compounds of the invention were screened as described in Example A, but substituting FRDA cells with Leber's Hereditary Optic Neuropathy (LHON) cells obtained from the Coriell Cell Repositories (Camden, N.J.; repository number GM03858). The compounds were tested for their ability to rescue human dermal fibroblasts from LHON patients from oxidative stress.

[4] = system: human dermal fibroblasts from Parkinson's disease patients; experiment: Rescue of BSO-stressed fibroblasts from Parkinson's disease patients; conditions: Fibroblast, PD fibroblasts AG20439, BSO stress, read-out: protection against PD, EC50
Experimental: as §1, §2, §3, §4, §5
Compounds of the invention were screened as described in Example A, but substituting FRDA cells with Parkinson's Disease (PD) cells obtained from the Coriell Cell Repositories (Camden, N.J.; repository number AG20439). The compounds were tested for their ability to rescue human dermal fibroblasts from Parkinson's disease patients from oxidative stress.

Measured: EC50

CC1=C(C)C(=O)C(c2cccc(C(F)(F)F)c2)=C(CCC(C)(C)O)C1=O [Example 17, 2-(3-Hydroxy-3-methylbutyl)-5,6-dimethyl-3-(3-(trifluoromethyl)phenyl)cyclohexa-2,5-diene-1,4-dione]
< 200 nM: all assays above

CC1=C(CCC(C)(C)O)C(=O)C(c2ccc(F)cc2)=C(C)C1=O [Example 6, 2-(4Fluorophenyl)-6-(3-hydroxy-3-methylbutyl)-3,5-dimethylcyclohexa-2,5-diene-1,4-dione]
< 200 nM: all assays above

CC1=C(CCC(C)(C)O)C(=O)C(c2ccc(F)c(F)c2)=C(C)C1=O [Example 5, 2-(3,4-Difluorophenyl)-6-(3-hydroxy-3-methylbutyl)-3,5-dimethylcyclohexa-2,5-diene-1,4-dione]
< 200 nM: all assays above

CCc1ccc(C2=C(CCC(C)(C)O)C(=O)C(C)=C(C)C2=O)cc1 [Example 16, 2-(4-Ethylphenyl)-3-(3-hydroxy-3-methylbutyl)-5,6-dimethylcyclohexa-2,5-diene-1,4-dione]
< 200 nM: all assays above

CC1=C(C)C(=O)C(c2ccc(Cl)cc2)=C(CCC(C)(C)O)C1=O [Example 15, 2-(4-Chlorophenyl)-3-(3-hydroxy-3-methylbutyl)-5,6-dimethylcyclohexa-2,5-diene-1,4-dione]
< 200 nM: all assays above

CC1=C(C)C(=O)C(c2ccc3ccccc3c2)=C(CCC(C)(C)O)C1=O [Example 13, 2-(3-Hydroxy-3-methylbutyl)-5,6-dimethyl-3-(naphthalen-2-yl)cyclohexa-2,5-diene-1,4-dione]
< 200 nM: all assays above

CC1=C(CCC(C)(C)O)C(=O)C(c2ccc3ccccc3c2)=C(C)C1=O [Example 4, 2-(3-Hydroxy-3-methylbutyl)-3,5-dimethyl-6-(naphthalen-2-yl)cyclohexa-2,5-diene-1,4-dione]
< 200 nM: all assays above
